Values joined by “and” are separate entries in the source; they are usually repeats but may differ in a detail not shown here. Equal entries are not always repeated. Toxic doses and inconclusive results are not listed.
Test system: BDF1 mice, P388 leukemia ip, median survival T/C
Assay: NCI In Vivo Anticancer Drug Screen. Data for tumor model P388 Leukemia (intraperitoneal) in B6D2F1 (BDF1) mice
Conditions: endpoint: median survival time, higher = longer survival
How it was run: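 T/C = treated-group survival ÷ vehicle-control survival; tumour transplanted into mice before dosing.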

[1] = dose: 100.0 mg/kg/injection, schedule: Q01DX009 (ip), vehicle: saline with Tween-80
[2] = dose: 200.0 mg/kg/injection, schedule: Q01DX009 (ip), vehicle: saline with Tween-80
[3] = dose: 400.0 mg/kg/injection, schedule: Q01DX009 (ip), vehicle: saline with Tween-80
[4] = dose: 100.0 mg/kg/injection, schedule: Q01DX009 (ip), vehicle: saline
[5] = dose: 100.0 mg/kg/injection, schedule: Q04DX003 (ip), vehicle: saline with Tween-80
[6] = dose: 200.0 mg/kg/injection, schedule: Q01DX009 (ip), vehicle: saline
[7] = dose: 200.0 mg/kg/injection, schedule: Q04DX003 (ip), vehicle: saline with Tween-80
[8] = dose: 400.0 mg/kg/injection, schedule: Q01DX009 (ip), vehicle: saline
[9] = dose: 400.0 mg/kg/injection, schedule: Q04DX003 (ip), vehicle: saline with Tween-80
[10] = dose: 25.0 mg/kg/injection, schedule: Q01DX009 (ip), vehicle: saline
[11] = dose: 25.0 mg/kg/injection, schedule: Q04DX003 (ip), vehicle: saline
[12] = dose: 50.0 mg/kg/injection, schedule: Q01DX009 (ip), vehicle: saline
[13] = dose: 100.0 mg/kg/injection, schedule: Q04DX003 (ip), vehicle: saline
[14] = dose: 6.25 mg/kg/injection, schedule: Q01DX009 (ip), vehicle: saline
[15] = dose: 12.5 mg/kg/injection, schedule: Q01DX009 (ip), vehicle: saline

ClC1=C(Cl)C2(Cl)C3(Cl)C(Cl)=C(Cl)C(Cl)(C3c3ccccc3)C2(Cl)C1c1ccccc1 (stereo not drawn)
T/C [1]: 95 % of control | T/C (dose: 100.0 mg/kg/injection, schedule: Q04DX003 (ip), vehicle: saline sonified): 100 % of control | T/C [2]: 95 % of control | T/C (dose: 200.0 mg/kg/injection, schedule: Q04DX003 (ip), vehicle: saline sonified): 104 % of control | T/C [3]: 95 % of control | T/C (dose: 400.0 mg/kg/injection, schedule: Q04DX003 (ip), vehicle: saline sonified): 90 % of control

Ic1ncnc2nc[nH]c12
T/C (dose: 75.0 mg/kg/injection, schedule: Q01DX009 (ip), vehicle: Klucel (hydroxypropylcellulose) (HPC)): 113 % of control | T/C [4]: 104 % of control | T/C [5]: 95 % of control | T/C (dose: 150.0 mg/kg/injection, schedule: Q01DX009 (ip), vehicle: Klucel (hydroxypropylcellulose) (HPC)): 113 % of control | T/C [6]: 108 % of control | T/C [7]: 104 % of control | T/C (dose: 300.0 mg/kg/injection, schedule: Q01DX009 (ip), vehicle: Klucel (hydroxypropylcellulose) (HPC)): 109 % of control | T/C [8]: 100 % of control | T/C [9]: 95 % of control

COc1ccc(/C=C/C(C)=O)cc1OC
T/C [10]: 94 % of control | T/C [11]: 107 % of control | T/C [12]: 99 % of control | T/C (dose: 50.0 mg/kg/injection, schedule: Q04DX003 (ip), vehicle: saline): 106 % of control | T/C [4]: 110 % of control | T/C [13]: 105 % of control | T/C [6]: 103 % of control | T/C (dose: 200.0 mg/kg/injection, schedule: Q04DX003 (ip), vehicle: saline): 100 % of control | T/C [8]: 108 % of control | T/C (dose: 400.0 mg/kg/injection, schedule: Q04DX003 (ip), vehicle: saline): 107 % of control

[CH3][Sn]([CH3])([Cl])[S]CCN
T/C [14]: 123 % of control

CN=C(N)c1ccc(N=C(N)c2ccc(N=C(N)c3ccc(NC(=O)Nc4ccc(NC(=O)Nc5ccc(C(N)=Nc6ccc(C(N)=Nc7ccc(C(N)=NC)cc7)cc6)cc5)cc4)cc3)cc2)cc1
T/C (dose: 3.0 mg/kg/injection, schedule: Q01DX009 (ip), vehicle: saline with Tween-80): 162 % of control | T/C (dose: 5.0 mg/kg/injection, schedule: Q01DX009 (ip), vehicle: saline with Tween-80): 183 % of control | T/C (dose: 8.0 mg/kg/injection, schedule: Q01DX009 (ip), vehicle: saline with Tween-80): 230 % of control and 162 % of control | T/C (dose: 12.0 mg/kg/injection, schedule: Q01DX009 (ip), vehicle: saline with Tween-80): 150 % of control | T/C (dose: 12.0 mg/kg/injection, schedule: Q04DX003 (ip), vehicle: saline with Tween-80): 250 % of control | T/C (dose: 18.0 mg/kg/injection, schedule: Q01DX009 (ip), vehicle: saline with Tween-80): 92 % of control | T/C (dose: 18.0 mg/kg/injection, schedule: Q04DX003 (ip), vehicle: saline with Tween-80): 213 % of control and 216 % of control | T/C (dose: 25.0 mg/kg/injection, schedule: Q01DX009 (ip), vehicle: saline with Tween-80): 109 % of control | T/C (dose: 25.0 mg/kg/injection, schedule: Q04DX003 (ip), vehicle: saline with Tween-80): 250 % of control and 204 % of control | T/C (dose: 37.0 mg/kg/injection, schedule: Q04DX003 (ip), vehicle: saline with Tween-80): 170 % of control

O=C(NCCNc1ccc(F)cc1)C12CC3CC(CC(C3)C1)C2
T/C (dose: 50.0 mg/kg/injection, schedule: Q01DX009 (ip), vehicle: saline with Tween-80): 91 % of control | T/C [1]: 104 % of control | T/C [2]: 97 % of control

CCN1C(=O)C(=O)c2ccccc21
T/C (dose: 75.0 mg/kg/injection, schedule: Q01DX009 (ip), vehicle: saline with Tween-80): 86 % of control

Cc1cc[n+](CCc2ccccc2)cc1
T/C [14]: 91 % of control | T/C [15]: 87 % of control | T/C (dose: 18.75 mg/kg/injection, schedule: Q01DX010 (ip), vehicle: acetone): 91 % of control | T/C (dose: 37.5 mg/kg/injection, schedule: Q01DX010 (ip), vehicle: acetone): 87 % of control | T/C [12]: 112 % of control | T/C (dose: 75.0 mg/kg/injection, schedule: Q01DX010 (ip), vehicle: acetone): 91 % of control

CC1(C)c2ccccc2C(C)(O)c2ccccc21
T/C [1]: 100 % of control | T/C [5]: 100 % of control | T/C [2]: 100 % of control | T/C [7]: 96 % of control | T/C [3]: 112 % of control | T/C [9]: 96 % of control

C=C1C(=O)O[C@H]2[C@H]1[C@H](OC(=O)/C(C)=C\C)CC(=C)[C@@H]1[C@H](O)[C@H]3O[C@@]3(C)[C@@]12O
T/C (dose: 5.0 mg/kg/injection, schedule: Q01DX010 (ip), vehicle: carboxymethylcellulose (CMC)): 104 % of control | T/C (dose: 10.0 mg/kg/injection, schedule: Q01DX010 (ip), vehicle: carboxymethylcellulose (CMC)): 104 % of control | T/C (dose: 20.0 mg/kg/injection, schedule: Q01DX010 (ip), vehicle: carboxymethylcellulose (CMC)): 113 % of control

Nc1nc2c(ncn2C2OC(CO)C(O)C2N)c(=O)[nH]1 (stereo not drawn)
T/C (dose: 3.12 mg/kg/injection, schedule: Q01DX009 (ip), vehicle: saline): 111 % of control | T/C [14]: 111 % of control and 124 % of control | T/C [15]: 102 % of control and 117 % of control | T/C [10]: 93 % of control and 111 % of control | T/C [12]: 108 % of control | T/C [5]: 109 % of control | T/C [9]: 100 % of control

NNc1nncc2ccccc12
T/C (dose: 6.25 mg/kg/injection, schedule: Q04DX003 (ip), vehicle: saline): 90 % of control | T/C (dose: 12.5 mg/kg/injection, schedule: Q04DX003 (ip), vehicle: saline): 90 % of control | T/C [10]: 109 % of control | T/C [11]: 113 % of control | T/C [12]: 90 % of control | T/C [13]: 100 % of control

O/N=c1/ccn(O)c2ccccc12
T/C (dose: 0.14 mg/kg/injection, schedule: Q01DX009 (ip), vehicle: saline): 168 % of control | T/C (dose: 0.19 mg/kg/injection, schedule: Q04DX003 (ip), vehicle: saline): 116 % of control | T/C (dose: 0.29 mg/kg/injection, schedule: Q04DX003 (ip), vehicle: saline): 120 % of control | T/C (dose: 0.34 mg/kg/injection, schedule: Q01DX009 (ip), vehicle: saline): 155 % of control and 183 % of control and 190 % of control | T/C (dose: 0.44 mg/kg/injection, schedule: Q04DX003 (ip), vehicle: saline): 180 % of control | T/C (dose: 0.51 mg/kg/injection, schedule: Q01DX009 (ip), vehicle: saline): 162 % of control and 170 % of control and 195 % of control | T/C (dose: 0.66 mg/kg/injection, schedule: Q04DX003 (ip), vehicle: saline): 210 % of control | T/C (dose: 1.0 mg/kg/injection, schedule: Q04DX003 (ip), vehicle: saline): 172 % of control | T/C (dose: 1.5 mg/kg/injection, schedule: Q04DX003 (ip), vehicle: saline): 181 % of control | T/C (dose: 4.65 mg/kg/injection, schedule: Q04DX003 (ip), vehicle: saline): 173 % of control | T/C (dose: 11.0 micrograms/kg/injection, schedule: Q01DX009 (ip), vehicle: saline): 104 % of control | T/C (dose: 22.0 micrograms/kg/injection, schedule: Q01DX009 (ip), vehicle: saline): 108 % of control | T/C (dose: 45.0 micrograms/kg/injection, schedule: Q01DX009 (ip), vehicle: saline): 104 % of control

Cc1cccc(Br)[n+]1[O-]
T/C [10]: 90 % of control | T/C [11]: 95 % of control | T/C (dose: 50.0 mg/kg/injection, schedule: Q01DX001 (ip), vehicle: saline): 100 % of control | T/C [4]: 95 % of control | T/C [13]: 95 % of control | T/C (dose: 200.0 mg/kg/injection, schedule: Q01DX001 (ip), vehicle: saline): 100 % of control

CCCCCCCCCCCCOCCCCCCCCCCCC
T/C (dose: 100.0 mg/kg/injection, schedule: Q01DX009 (sc), vehicle: olive oil, sesame oil, peanut oil): 100 % of control | T/C (dose: 100.0 mg/kg/injection, schedule: Q04DX003 (sc), vehicle: olive oil, sesame oil, peanut oil): 109 % of control | T/C (dose: 200.0 mg/kg/injection, schedule: Q01DX009 (sc), vehicle: olive oil, sesame oil, peanut oil): 100 % of control | T/C (dose: 200.0 mg/kg/injection, schedule: Q04DX003 (sc), vehicle: olive oil, sesame oil, peanut oil): 100 % of control | T/C (dose: 400.0 mg/kg/injection, schedule: Q01DX009 (sc), vehicle: olive oil, sesame oil, peanut oil): 95 % of control | T/C (dose: 400.0 mg/kg/injection, schedule: Q04DX003 (sc), vehicle: olive oil, sesame oil, peanut oil): 100 % of control
